This is an account of results in patent publication US20220062205A1, “TREATMENT OF GASTROINTESTINAL DISORDERS AND SYMPTOMS THEREOF” (Indiana University Research and Technology Corporation, priority 2018, published 2022).

Experiment [1] concerns Winnie mice. As to the kind of experiment: Clinical symptoms (body weight, rectal prolapse, faecal water content) in Winnie mice treated with APX3330. It is filed as in vivo, mouse. The following applies: for Daily Body Weight: mean, SEM in line below, in % (unit assumed). The source says:
In this Example, the murine model of IBD named Winnie, in which spontaneous chronic colitis results from a primary intestinal epithelial defect conferred by a mutation in the Muc2 mucin gene, was used to analyze the symptoms of IBD and the effects of treatment with APX3330. Although other models of chronic intestinal inflammation have been developed (e.g., IL-10 knockout), most of them are environment-dependent (attain inflammation only in the presence of pathogenic bacteria). Further, unlike other models, mild spontaneous inflammation in the colorectum is developed in all Winnie mice by 6 weeks of age (young adults) in pathogen-free conditions; it progresses over time and results in severe colitis by the age of 12-16 weeks. This is due to a thinner mucus layer allowing increased intestinal permeability and thus enhanced susceptibility to luminal toxins normally within the gut. In humans, Muc2 production and secretion are reduced leading to a thinner mucosal layer and increased intestinal permeability. Winnie mice (Win/Win) display symptoms of diarrhoea (not watery), ulcerations, rectal bleeding and pain at the acute stages of colitis similar to those in human IBD. The Winnie murine model of chronic colitis (12 w.o.; 15-35 g; n=24) were attained from Victoria University Werribee Animal Facility (Melbourne, Australia) to determine the effectiveness of APX3330 on mechanisms of oxidative stress. Treated Winnie mice were paralleled to a control C57BL/6 group (12 w.o.; 20-30 g; n=12) inclusive of female and male mice. All mice were acclimatized for 3 days prior to receiving in vivo intraperitoneal (IP) injections. All mice were housed at Western Centre for Health, Research and Education (WCHRE, Melbourne, Victoria, Australia) in a temperature-controlled environment with a 12-hour day/night cycle. All animals had free access to food and water with […] efforts made to minimize any suffering. All experimental procedures in this Example were conducted in agreement to the Australian National Health and Medical Research Council (NHMRC) guidelines and approved by Victorian University Animal Experimentation Ethic Committee (AEEC) under animal ethics AEETH 13/001 and AEC 17/016. The small molecular APE1/Ref-1 antagonist; APX3330, was administered via IP injections in Winnie mice at a dose of 25 mg/kg (30 G needle, max volume 200 μl) dissolved in Cremphore (2%) (Sigma-Aldrich): Ethanol (2%) in sterile water (96%). Mice received alternating IP injections twice a day with 12-hour intervals, over the course of two weeks during predominate intestinal inflammation. Winnie-sham treated mice received vehicle injections excluding APX3330 drugs. All mice were monitored, weighed and faecal pellets were collected over the course of treatment.

The test system of experiment [2] is Winnie mice. As to the kind of experiment: Intestinal inflammation: faecal lipocalin (Lcn)-2 ELISA. It is filed as in vivo, mouse. Particulars: day 14; mean±SEM, n=5. The protocol: The small molecular APE1/Ref-1 antagonist; APX3330, was administered via IP injections in Winnie mice at a dose of 25 mg/kg (30 G needle, max volume 200 μl) dissolved in Cremphore (2%) (Sigma-Aldrich): Ethanol (2%) in sterile water (96%). Mice received alternating IP injections twice a day with 12-hour intervals, over the course of two weeks during predominate intestinal inflammation. Winnie-sham treated mice received vehicle injections excluding APX3330 drugs. All mice were monitored, weighed and faecal pellets were collected over the course of treatment. Faecal lipocalin (Lcn)-2 ELISA kit (Abcam) were used to detect efficacy of APX3330 on levels of colonic inflammation. Faecal samples collected on day 14 of treatments from control C57BL/6, Winnie-Sham treated and Winnie-APX3330 treated mice were reconstituted in PBS-0.1 TWEEN 20 (100 mg/mL) to form a homogenous faecal suspension. Homogenous suspension was centrifuged for 10 minutes at 12000 RPM at 4° C. Lcn-2 were determined in the clear supernatants. All samples were repeated in duplicates for statistical value. […] Microplate reader capable of measuring absorbance at 450 nm, with the correction wavelength set at 540 nm was used to detect Lcn-2 protein (pg/mL) in faecal pellet supernatant.
(An ELISA detects its analyte on a solid surface through an enzyme-linked reagent.)

The structures appear in SMILES notation.

As for `CCCCCCCCCC(=CC1=C(C)C(=O)C(OC)=C(OC)C1=O)C(=O)O` [APX3330], the “Daily Body Weight” value with Winnie mice [1] (Day 1, relative to initial weight, 25 mg/kg IP twice a day) came out at 102; in the experiment with Winnie mice [1] (Day 2, relative to initial weight, 25 mg/kg IP twice a day), 100; in the experiment with Winnie mice [1] (Day 3, relative to initial weight, 25 mg/kg IP twice a day), 101; in the experiment on Winnie mice [1] (Day 4, relative to initial weight, 25 mg/kg IP twice a day), 101; in the experiment on Winnie mice [1] (Day 5, relative to initial weight, 25 mg/kg IP twice a day) it was 100; with Winnie mice [1] (Day 6, relative to initial weight, 25 mg/kg IP twice a day) it was 100. Further, the “Daily Body Weight” value with Winnie mice [1] (Day 7, relative to initial weight, 25 mg/kg IP twice a day) was 98; in the experiment on Winnie mice [1] (Day 8, relative to initial weight, 25 mg/kg IP twice a day) it was 98; in the experiment on Winnie mice [1] (Day 9, relative to initial weight, 25 mg/kg IP twice a day), 98; with Winnie mice [1] (Day 10, relative to initial weight, 25 mg/kg IP twice a day), 99; with Winnie mice [1] (Day 11, relative to initial weight, 25 mg/kg IP twice a day) it was 99; in the experiment on Winnie mice [1] (Day 12, relative to initial weight, 25 mg/kg IP twice a day), 99. In the experiment on Winnie mice [1] (Day 13, relative to initial weight, 25 mg/kg IP twice a day), the “Daily Body Weight” value came out at 99. Moreover, the “rectal prolapse, edema and bleeding” value with Winnie mice [1] (by day 14 of treatments, 25 mg/kg IP twice a day) is recorded as “reduced”. Further, the faecal water content in the experiment with Winnie mice [1] (day 14, 25 mg/kg IP twice a day, mean±SEM, n=7) is listed as 73.2±2.1%. In the experiment on Winnie mice [2], this compound came in with a Lcn-2 faecal level of 36 ± 2.0 pg/mL.
